From patent publication US20080286340A1, “Buffered nicotine containing products” (priority 2007, published 2008)
Like-named read-outs stand apart in the source and are kept apart here.

Legend:
[1] = pKa falling in interval 8-9.6; cited from earlier work
[2] = cited from earlier work
[3] = at 37° C.; cited from earlier work
[4] = smoking a cigarette; cited from earlier work

Structure (SMILES)	pKa value (in interval 8-9.6) [1]	Solubility in water ([2]; water)	other results
NC(=O)C[C@H](N)C(=O)O [Aspargine]	8.73		
N[C@@H](CS(=O)(=O)O)C(=O)O [Cysteic acid]		Very soluble	
N[C@@H](CCC(=O)O)C(=O)O [Glutamic acid]	9.58		
NC(=O)CC[C@H](N)C(=O)O [Glutamine]		42 g/kg	
N[C@@H](Cc1c[nH]cn1)C(=O)O [Histidine]			Solubility in water [2]: 43.5 g/kg
CC[C@H](C)[C@H](N)C(=O)O [Isoleucine]		34.2 g/kg	
CC(C)C[C@H](N)C(=O)O [Leucine]		22.0 g/kg	
NCCCC[C@H](N)C(=O)O [Lysine]	9.16		Solubility in water [2]: Very soluble^a)b)
CSCC[C@H](N)C(=O)O [Methionine]			Solubility in water [2]: 56 g/kg
N[C@@H](Cc1ccccc1)C(=O)O [Phenylalanine]	9.09	27.9 g/kg	
CC(C)[C@H](N)C(=O)O [Valine]		88.5 g/kg	
CN1CCCC1c1cccnc1 (centres unmarked) [nicotine, 3-(1-methyl-2-pyrrolidinyl)pyridine]			pKa (acid-base equilibrium of nicotine) [3]: ~7.8; nicotine in the non-charged base form (assuming a pH of the saliva of 6.8): about 10%; nicotine in the free readily absorbable base form (at a pH of 9.0): more than 90%; time until nicotine reaches the brain after inhalation [4]: around ten
